# Values quoted from earlier work in patent US4703106A, “Novel polypeptide and process for producing the same” (Mitsubishi Petrochemical Co., Ltd., priority 1984, dated 1987).
# Positions of bridges follow the written chain, without caps; N, C: chain ends. No end group written: not given here.
# Tested on: Ca^2+ concentration in blood
# Settings: published as Japanese Provisional Patent Publication No. 123500/1985
substance,measurement,value
"chicken CT: calcitonin extracted and purified from the ultimobranchial glands of chickens, formula (I) (CASLSTCVLGKLSQELHKLQTYPRTDVGAGTP-NH2; disulfide 1-7; ends not checked; UniProt P07660 82-113, looked up)",biological activity relative to CT's of cyclostomata and fish,equal to or higher than CT's of cyclostomata and fish
